Source: the NIST ThermoML archive (doi:10.1021/acs.jced.8b00499)

Assays:
[1] = Liquid; for viscosity / mass density: 298.15 K, 101.33 kPa; for viscosity: Capillary tube (Ostwald / Ubbelohde) method; for mass density: Pycnometric method; for vapor or sublimation pressure: Ebulliometric method (Recirculating still)
[2] = refractive index (Na D-line) (dimensionless); conditions: 298.15 K; 101.33 kPa; Liquid; Standard Abbe refractometry

CCC(C)OCOC (stereo unspecified) [2-(methoxymethoxy)butane]
Conditions	mass density [kg/m3]	refractive index	viscosity [mPa·s]
[1]	836.4	–	0.561
[2]	–	1.3833	–

[1]
Conditions	vapor or sublimation pressure [kPa]
346.4 K	31.5
349.99 K	36.4
356.07 K	44.4
359.47 K	49.6
363.89 K	57.2
367.43 K	65.1
372.48 K	75.7
376.45 K	85.1
379.35 K	92
382.8 K	101.3
385.21 K	109.1
388.5 K	119
391.24 K	127.9

CCCCO [butan-1-ol]
Conditions	mass density [kg/m3]	refractive index	viscosity [mPa·s]
[1]	806	–	2.534
[2]	–	1.3972	–

Conditions	vapor or sublimation pressure [kPa]
[1], 390.9 K	101.3

CCC(C)O (stereo unspecified) [butan-2-ol]
Conditions	mass density [kg/m3]	refractive index	viscosity [mPa·s]
[1]	802.6	–	3.099
[2]	–	1.395	–

[1]
Conditions	vapor or sublimation pressure [kPa]
344.47 K	31.5
351.27 K	42.8
356.45 K	53.5
363.21 K	70.7
366.85 K	81.2
369.83 K	91.3
372.7 K	101.3

CO [methanol]
Conditions	vapor or sublimation pressure [kPa]
[1], 337.83 K	101.3
